Measured values as given in patent publication EP4635565A1, “PRENYLATED TETRAHYDROQUINOLINES AND QUINOLINES WITH PPAR AGONIST ACTIVITY” (Fundación para la Investigación del Hospital Clínico de la …, priority 2024, dated 2025).

What was measured:
[1] = tested on: hPPARα, hPPARβ/δ, and hPPARγ; assay: PPAR transactivation assays, agonist profile over the three isoforms; details: always with partial activity on the PPARγ isoform
hPPARγ = biological target: T1, hPPARγ (Homo sapiens, UniProt P37231); assay: PPAR transactivation assay, human chimeric PPAR/Gal4 reporter luciferase system in Cos-7 cells (PPARγ); assay type: cell-based
T1 sequence (P37231 238-505): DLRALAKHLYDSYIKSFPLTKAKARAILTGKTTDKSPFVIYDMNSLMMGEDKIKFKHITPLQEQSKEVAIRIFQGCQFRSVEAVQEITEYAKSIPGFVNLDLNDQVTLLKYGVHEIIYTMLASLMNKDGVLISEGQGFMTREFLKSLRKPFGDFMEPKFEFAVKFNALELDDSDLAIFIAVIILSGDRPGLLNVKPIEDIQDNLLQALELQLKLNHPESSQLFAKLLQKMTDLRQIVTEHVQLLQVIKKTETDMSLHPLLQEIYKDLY
Method: (§1) Transfections were stopped after 16 h by adding DMEM/10% FCS. Cells were detached with trypsin, re-seeded in 96-well plates for 6 h in DMEM/10% FCS, and incubated for 24 h in DMEM/0.2% FCS with increasing concentrations of the test compounds or vehicle (DMSO, 0.1% final concentration). At the end of the experiment, cells were washed once with ice-cold PBS, lysed, and luciferase and β-galactosidase activities were measured. Luciferase activity was normalised to that of the internal control, β-galactosidase. All transfection experiments were performed at least five times.
(§2) EC50 values against human PPARα/Gal4, PPARβ/δ/Gal4 and PPARγ/Gal4 receptors.

ob/ob mice [2] = assay: In vivo study in ob/ob mice, biochemical analysis of blood; details: orally, 10 mg/kg/d, 15 days
Method: (§3) Animal studies were carried out in accordance with Directive 2010/63/EU for experimentation on animals. The handling of the animals and the experimental protocols were approved by the Animal Experimentation Ethics Committee of the University of Valencia (Protocol No. A1469445706311). Six-week-old male ob/ob mice (C57BL/6.Cg-Lepob/J) were supplied by Charles River Laboratories International (Wilmington, MA). Blood samples were collected from mice fasted for 6 hours to determine basal blood glucose levels. The animals, randomly divided into two groups (N ≈ 10-11 per group), were treated daily with vehicle (1% hydroxyethyl cellulose, Sigma-Aldrich) or with tetrahydroquinoline 5a at 10 mg/kg/day, for 15 days orally. After 15 days of treatment, and 6 h of fasting, the mice were anesthetized by inhalation of isoflurane and blood samples were collected in tubes with heparin or EDTA by intracardiac puncture. Plasma samples were obtained and stored at -80°C. Liver and epididymal white adipose tissue were removed and part of both organs were quickly frozen in liquid N2 for qPCR studies.
Plasma levels of total cholesterol and HDL-cholesterol (HDL-c) were determined by enzymatic processes using commercial kits: LabAssay™ Cholesterol (Wako Pure Chemicals Industries, Cape Charles, VA) and Mouse HDL-Cholesterol Assay Kit (Crystal Chem, Elk Grove Village, IL), respectively. Non-HDL cholesterol levels were calculated (total cholesterol - HDL-c). Fasting blood glucose levels were measured using a glucometer (Contour Next, Bayer HealthCare Pharmaceuticals LLC, Berlin, Germany), while insulin levels were determined using the commercial Mouse Insulin ELISA kit (Mercodia, Uppsala, Sweden). The HOMA-IR index was calculated using the following formula: fasting blood glucose (mmol/L) * fasting insulinemia (µU/mL) / 22.5.
Tetrahydroquinoline 5a administered for 15 days (orally, 10 mg/kg/d) to an obese and diabetic mouse model (ob/ob), improved lipid and carbohydrate parameters. Indeed, 5a decreased total cholesterol and non-HDL cholesterol levels, as well as insulin levels and the HOMA-IR index in the blood of oblob mice, compared to vehicle-treated mice (Figures 4A-4D).

NF-κB-IL8P-Luc+ = assay: NF-κB-IL8P transactivation assay (TNFα-stimulated L929sA cells); assay type: cell-based, mouse; details: 10 µM, 1 h before TNF (2000 IU/ml), total induction time 6 h; compared to GW7647
Method: L929sA mouse fibroblasts were stably transfected using the calcium phosphate precipitation protocol, as described previously with p1481.IL8P-Luc+ plasmid construct. The indicated induction was performed at least in triplicates. All conditions were solvent-controlled. Subsequently, the cells were washed with PBS and lysed using TROPIX lysis buffer. Cellular luciferase levels were normalised to those of β-galactosidase (TROPIX, Bedford, MA, USA).
PPARs play crucial roles in controlling inflammatory responses. NF-κB is a transcription factor that plays a pivotal role in the expression of multiple genes involved in the immune and inflammatory responses. To study the potential anti-inflammatory effects of the tetrahydroquinolines and quinolines of the invention, the NF-κB-dependent physiological human IL-8 promoter construct, p1481.IL8P-Luc+, which is stably integrated into L929sA cells, was tested. After transfection, cells were treated at 10 µM with 5a, 5b, 8a, or 8b prior to TNFa stimulation. […] Given the significant decrease in NF-κB-IL8P-Luc+ reporter gene activity observed after treatment with the 2- or 3-prenylated tetrahydroquinolines 5a and 5b and the 3-prenylated quinoline 8b, their potential anti-inflammatory effects at the transcriptional level for other inflammatory mediators was evaluated. To achieve this, the L929sA WT cells were treated with 5a, 5b and 8b at 10 µM for 1 h, followed by TNFa stimulation for a total induction time of 6 h. The expression of inflammatory genes was evaluated by RT-qPCR.

ob/ob mice [3] = assay: Gene expression (qPCR) in liver and epididymal white adipose tissue of ob/ob mice; assay type: in vivo; details: epididymal white adipose tissue and/or liver of ob/ob mice, 10 mg/kg/day, 15 days orally
Method: as §3
Gene expression analysis was carried out by real-time qPCR. To this end, total RNA was extracted from liver and epididymal white adipose tissue biopsies using TRIzol reagent (Invitrogen, Carlsbad, CA, USA). The isolated RNA was retro-transcribed using the Maxima First-Strand kit and amplified with a Luminaris Color qPCR MasterMIX (Fermentas, Whaltham, MA, USA) in a 7900 FastSystem thermal cycler. The mRNA levels were normalized to the expression of the constitutive gene cyclophilin.

hPPARα = biological target: T2, hPPARα (Homo sapiens, UniProt Q07869); assay: PPAR transactivation assay, human chimeric PPAR/Gal4 reporter luciferase system in Cos-7 cells (PPARα); assay type: cell-based
T2 sequence (Q07869 167-468): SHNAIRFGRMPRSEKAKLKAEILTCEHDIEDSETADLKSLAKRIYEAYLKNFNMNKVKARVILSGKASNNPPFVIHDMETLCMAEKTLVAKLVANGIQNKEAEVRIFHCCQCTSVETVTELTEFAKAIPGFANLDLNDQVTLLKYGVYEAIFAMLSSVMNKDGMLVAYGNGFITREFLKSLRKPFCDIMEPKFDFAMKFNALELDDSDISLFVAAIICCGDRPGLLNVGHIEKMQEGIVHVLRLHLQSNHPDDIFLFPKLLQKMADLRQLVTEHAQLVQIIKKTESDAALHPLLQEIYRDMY
Method: as §1, §2

[4] = compared to vehicle-treated mice

Q: For CCOC(=O)CC/C(C)=C/CCC1CCc2cc(OCc3ccccc3)ccc2N1C (stereo not drawn) [Compound 5a, Ethyl (E)-7-(6-(benzyloxy)-1-methyl-1,2,3,4-tetrahydroquinolin-2-yl)-4-methylhept-4-enoate], which “PPAR agonist activity profile” value [1] is on record?
A: Its value is “pan-PPAR agonist activity”.

Q: And the Emax at 10 µM (hPPARγ; COS-7, read-out: Efficacy (%) at 10 µmol/L PPARγ)?
A: The Emax at 10 µM was 43%.

Q: What about the EC50 (hPPARγ; human PPARγ/Gal4, Cos-7 cells, concentration range 0.001-10 µmol/L, NA: not active) of the same compound?
A: Its EC50 is 2.7 µM.

Q: And the “levels of hepatic transaminase ALT” value (ob/ob mice [2])?
A: The value was “did not increase”.

Q: What about the “levels of hepatic transaminase AST” value (ob/ob mice [2]) of the same compound?
A: The value was “did not increase”.

Q: And the HOMA-IR index (ob/ob mice [2]; compared to vehicle, calculated from fasting glucose and insulin)?
A: Its HOMA-IR index is “decreased”.

Q: And the non-HDL cholesterol levels (ob/ob mice [2]; compared to vehicle, total cholesterol - HDL-c)?
A: The non-HDL cholesterol levels was “decreased”.

Q: And the insulin levels (ob/ob mice [2]; [4])?
A: Its insulin levels is “decreased”.

Q: What about the total cholesterol levels (ob/ob mice [2]; [4]) of the same compound?
A: Its total cholesterol levels is “decreased”.

Q: What about the “transactivation of the TNFα-dependent NF-κB-driven reporter” value (NF-κB-IL8P-Luc+) of the same compound?
A: Its value is “can repress the transactivation of the TNFα-dependent NF-κB-driven reporter”.

Q: And the “expression of Acox1” value (ob/ob mice [3])?
A: Its value is “increased”.

Q: What about the “expression of Cpt1a” value (ob/ob mice [3]) of the same compound?
A: The value was “increased”.

Q: What about the “expression of Pdk4” value (ob/ob mice [3]) of the same compound?
A: Its value is “increased”.

Q: What about the EC50 (hPPARα) of the same compound?
A: The EC50 was 3.6 µM.

Q: What about the Emax at 10 µM (hPPARα; COS-7, read-out: Efficacy (%) at 10 µmol/L PPARα) of the same compound?
A: The Emax at 10 µM was 76%.
